Several values for one entry are separate records, joined by “and”; a condition that tells them apart may be missing. Equal entries are not always repeated. Where two headings read alike, the source gives them in different places. Values belong to the compound of their own block, whether it stands above or below them. Where a SMILES comes first, the peptide text is derived from it. The star is where a group is joined. Pyrrole2CO = O=C(c1ccc[nH]1)*; Bz = O=C(c1ccccc1)*
Key:
APC (303–739) = target: T1, APC (303–739) (Homo sapiens, UniProt P25054); test: FP competitive assay using tracer 7; type: binding; conditions: for FP(mp): Tracer 7, replicate wells
T1 sequence (P25054 303-739): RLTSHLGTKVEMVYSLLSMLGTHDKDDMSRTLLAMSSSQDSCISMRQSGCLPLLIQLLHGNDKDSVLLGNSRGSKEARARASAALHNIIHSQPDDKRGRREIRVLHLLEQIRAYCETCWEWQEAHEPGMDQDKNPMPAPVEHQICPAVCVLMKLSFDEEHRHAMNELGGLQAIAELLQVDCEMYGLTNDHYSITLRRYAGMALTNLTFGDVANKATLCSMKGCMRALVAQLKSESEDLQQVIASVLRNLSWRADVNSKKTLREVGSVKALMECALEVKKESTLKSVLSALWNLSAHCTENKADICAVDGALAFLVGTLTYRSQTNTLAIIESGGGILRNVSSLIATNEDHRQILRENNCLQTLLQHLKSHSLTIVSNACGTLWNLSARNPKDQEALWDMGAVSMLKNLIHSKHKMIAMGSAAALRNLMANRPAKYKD
Summary of the method: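 Fluorescence polarization competition: APC (303–739) in 50 mM HEPES pH 7.5, 300 mM NaCl, 1 mM EDTA, 1 mM DTT, preincubated 1 h at room temperature with serially diluted peptides. FITC tracer 7 then added (400 nM stock) and FP read after 1.5 h at room temperature; IC50 by nonlinear regression, triplicates.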

APC = target: T2, APC (Homo sapiens, UniProt P25054); test: FP competitive assay using tracer 1; type: binding; conditions: for FP(mp): Tracer 1, triplicate raw readings
T2 sequence (P25054 303-739): T1 sequence (P25054 303-739)
Method: In our previous study, we established an FP assay for screening APC–Asef inhibitors using FITC-labeled tracer 1 (Ac–^176[…][FITC]^195–NH2)[16]. […]. However, their Kd values measured by isothermal titration calorimetry (ITC) actually vary up to more than 20 times[16],[17]. […].
FITC-labeled tracer peptides were obtained from Changzhou Kanglong Biotech Ltd. (Changzhou, Jiangsu, China). […]. The FP signal changes upon tracer binding were measured after 1.5 h of incubation using a Synergy neo microplate reader (BioTek Instruments, Inc.) and plotted against the protein concentration. The corresponding EC50 values were generated by fitting the curves with a nonlinear regression model. […]. To make a working solution, APC (303–739) was diluted in FP buffer (50 mM HEPES, pH 7.5, 300 mM NaCl, 1 mM EDTA, 1 mM DTT). […] The FP signals were measured after 1.5 h of incubation at room temperature using a Synergy neo microplate reader. Three controls were included on each plate, i.e., blank (without protein and tracer), 100% inhibition (free tracer only), and 0% inhibition (protein/tracer complex only) controls. All experiments were performed in triplicate. The IC50 values of peptides were calculated by nonlinear regression analysis using GraphPad Prism 7.0 software.

LS-174T cells = test: DBZ-induced goblet cell differentiation of LS-174T cells (RT-PCR); type: cell-based; conditions: 1 μM DBZ
Method: . Notch inhibition by dibenzazepine (DBZ) allows colorectal stem cells to differentiate into goblet cells, and the DBZ-induced goblet cell differentiation of LS-174T cells is a well-established intestinal differentiation model. […].
Total RNA was extracted using TRIzol reagent (Takara Bio Inc., Japan) following the manufacturer’s instructions. Total RNA (1 μg) was reverse-transcribed into cDNA using the PrimeScript RT Kit (Takara Bio Inc., Japan). Quantitative real-time reverse transcription-PCR was performed using a SYBR Green kit (Vazyme, China). β-Actin mRNA was employed as a reference gene for expression normalization. The qPCR primer sequences are listed in Supplementary Table 8. […]
Supplementary Fig. 17. Effect of […] on apoptosis and cell differentiation. a,b) Flow cytometry apoptosis analysis of SW480 (a) and HIEC-6 (b) cells treated with 25 μM MAIT -516 for 48 h, the gating strategy is shown for control sample . c) RT-PCR analysis of genes involved in intestinal cell differentiation ( MUC2, ATOH1, HES1, SPDEF and TFF3) in LS-174T cells. LS-174T cells were treated […]
mean ± SD (n = 3 independent experiments). p values were calculated by one-way ANOVA with Tukey’s multiple comparisons test.
Source data are provided as a Source Data file.
(1 picture or pasted object on this page, not shown here)

IC50 (APC (303–739); Repeat 1, Table 3 source data, read-out: IC50(μM) Repeat 1): 0.595 µM | IC50 (APC (303–739); Repeat 2, Table 3 source data, read-out: IC50(μM) Repeat 2): 0.526 µM | IC50 (APC (303–739); Repeat 3, Table 3 source data, read-out: IC50(μM) Repeat 3): 0.599 µM | FP(mp) (APC (303–739); Conc. 0.0061 μM): 288 mp and 294 mp and 291 mp | FP(mp) (APC (303–739); Conc. 0.0122 μM): 287 mp and 290 mp and 289 mp | FP(mp) (APC (303–739); Conc. 0.0244 μM): 290 mp (2×) and 292 mp | FP(mp) (APC (303–739); Conc. 0.05 μM): 281 mp and 276 mp and 278 mp | FP(mp) (APC (303–739); Conc. 0.10 μM): 261 mp and 262 mp and 266 mp | FP(mp) (APC (303–739); Conc. 0.20 μM): 233 mp and 232 mp and 238 mp | FP(mp) (APC (303–739); Conc. 0.39 μM): 196 mp and 201 mp and 193 mp | FP(mp) (APC (303–739); Conc. 0.78 μM): 163 mp and 164 mp (2×) | FP(mp) (APC (303–739); Conc. 1.56 μM): 129 mp and 126 mp (2×) | FP(mp) (APC (303–739); Conc. 3.13 μM): 103 mp and 101 mp (2×) | FP(mp) (APC (303–739); Conc. 6.25 μM): 81 mp and 84 mp and 83 mp | FP(mp) (APC (303–739); Conc. 12.50 μM): 71 mp and 69 mp and 67 mp | FP(mp) (APC (303–739); Conc. 25.00 μM): 65 mp and 63 mp (2×) | FP(mp) (APC (303–739); Conc. 50.00 μM): 63 mp and 60 mp (2×) | IC50 (APC (303–739); mean of 3 repeats, Table 3 source data, read-out: IC50(μM) mean): 0.573 µM | IC50 (APC; Supplementary Table 4, read-out: IC50, Tracer 1): 640 ± 170 nM | FP(mp) (APC; Conc. 0.05 μM): 182 mp and 179 mp | FP(mp) (APC; Conc. 0.10 μM): 180 mp and 177 mp | FP(mp) (APC; Conc. 0.20 μM): 175 mp and 169 mp and 173 mp | FP(mp) (APC; Conc. 0.39 μM): 157 mp and 159 mp and 160 mp | FP(mp) (APC; Conc. 0.78 μM): 120 mp and 128 mp and 126 mp | FP(mp) (APC; Conc. 1.56 μM): 72 mp and 73 mp | FP(mp) (APC; Conc. 3.13 μM): 56 mp and 54 mp | FP(mp) (APC; Conc. 6.25 μM): 52 mp and 55 mp and 51 mp | FP(mp) (APC; Conc. 12.50 μM): 50 mp and 51 mp and 47 mp | FP(mp) (APC; Conc. 25.00 μM): 50 mp and 48 mp | FP(mp) (APC; Conc. 50.00 μM): 48 mp and 50 mp and 46 mp | FP(mp) (APC; Conc. 100.00 μM): 50 mp and 51 mp and 47 mp | FP(mp) (APC; Conc. 200.00 μM): 48 mp and 50 mp | FP(mp) (APC; Conc. 400.00 μM): 57 mp and 53 mp
Compound: CC(C)C[C@H](NC(=O)[C@H](CO)NC(=O)[C@H](CCC(=O)O)NC(=O)CNC(=O)[C@H](C)NC(=O)c1ccc[nH]1)C(=O)N[C@@H](Cc1ccc(O)cc1)C(=O)N[C@@H](CCC(=O)O)C(N)=O [MAI-509] (Pyrrole2CO-AGESLYE-NH2)

Compound: C[C@H](NC(=O)c1ccccc1)C(=O)NCC(=O)N[C@@H](CCC(=O)O)C(=O)N[C@@H](CO)C(=O)N[C@@H](Cc1ccc(O)cc1)C(=O)N[C@@H](Cc1ccc(O)cc1)C(=O)N[C@@H](CCC(=O)O)C(N)=O [MAI-458] (Bz-AGESYYE-NH2)
IC50 (APC (303–739); IC50, Tracer 7, Supplementary Table 4): 0.9 ± 0.03 µM | IC50 (APC): 590 ± 140 nM

Compound: C[C@H](NC(=O)Cc1cc(F)cc(F)c1)C(=O)N[C@@H]1C(=O)N(C)c2ccccc2-c2ccccc21 [DBZ, dibenzazepine]
mRNA level of NOTCH target gene HES1 (LS-174T cells): significantly suppressed | mRNA levels of goblet cell markers (MUC2, TFF3, ATOH1, SPDEF) (LS-174T cells): increasing the mRNA levels

Source: publication PMC9402538, “Rational design of a sensitivity-enhanced tracer for discovering efficient APC–Asef inhibitors” (Nature Communications, 2022)
